Assay [1] concerns the target T1, GST-RIPK2 fusion protein (human RIPK2, amino acids 1-310) (Homo sapiens, UniProt O43353).
T1 construct: made in house; host or cells: baculovirus infected Sf9 cells
As to the kind of experiment: RIPK2 binding competition assay (TR-FRET, Tracer 199 displacement). The conditions noted are these: 10 nM Tracer 199, 1 nM GST-RIPK2, read-out: RIPK2 IC50. The method, boiled down: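 GST-RIPK2 (human aa 1-310, Sf9-expressed; final 1 nM) with Tracer 199 (final 10 nM) and Tb-anti-GST (final 0.5 nM) in Tris pH 7.5 buffer, 45 min at 22 °C. TR-FRET 665/620 nm ratio after 337 nm excitation; normalized to no-inhibitor (0%) and no-protein (−100%), giving IC50.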

Assay [2] relates to NF-κB pathway (SEAP) in THP1-Dual cells. As to the kind of experiment: THP-1 Dual cell SEAP assay (L18-MDP stimulated). In kind it is cell-based. The note with it: Homo sapiens, THP1-Dual, read-out: NF-κB THP1 IC50 bin. An outline of the steps: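 THP1-Dual cells (~25,000/well) were preincubated 30 min with serially diluted compounds, then stimulated with 10 ng/mL L18-MDP (final) for 20-24 h at 37 °C. Supernatant SEAP was read with QUANTI-Blue at OD 620-655 nm after 2 h. IC50 came from non-linear fits of % inhibition versus DMSO/L18-MDP controls after media-blank subtraction.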

Assay [3] has as its target T2, binding of His-XIAP(BIR2)-avi fusion protein to GST-RIPK2 fusion protein (RIPK2/XIAP) (Homo sapiens, UniProt O43353).
T2 construct: made in house; host or cells: baculovirus infected Sf9 cells
As to the kind of experiment: RIPK2-XIAP binding competition PPI assay (TR-FRET). The note with it: for Emax: read-out: PPI Amax bin; for IC50: read-out: PPI IC50 bin. An outline of the steps: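 Compounds (in DMSO, 100-fold stock) incubated 120 min at 23 °C with 1 nM GST-RIPK2 (aa 1-310) and 25 nM His-XIAP(BIR2 aa 152-231)-avi, plus anti-His-XL665 and anti-GST-Tb, in pH 7.5 Tris buffer. Read-out: 665/520 nm emission ratio. Normalized to no-inhibitor (0%) and 50 nM GSK583 (−100%); Amax binned A–D.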

Setting [4] is: RIPK2/XIAP binding competition PPI assay, Amax.
Where [5] appears, read: RIPK2/XIAP binding competition PPI assay.

Like-named read-outs stand apart in the source and are kept apart here. Where only a bound is given, the exact number is not on record here.

In US20260137706A1, “METHODS OF TREATING INFLAMMATORY DISEASES” (INTERLINE THERAPEUTICS, INC., priority 2023, published 2026) one finds IC50 and Emax data, which are given here for 16 molecules.

For orientation: IC50 means the concentration that inhibits the measured activity by half.

T1 sequence (O43353 1-310): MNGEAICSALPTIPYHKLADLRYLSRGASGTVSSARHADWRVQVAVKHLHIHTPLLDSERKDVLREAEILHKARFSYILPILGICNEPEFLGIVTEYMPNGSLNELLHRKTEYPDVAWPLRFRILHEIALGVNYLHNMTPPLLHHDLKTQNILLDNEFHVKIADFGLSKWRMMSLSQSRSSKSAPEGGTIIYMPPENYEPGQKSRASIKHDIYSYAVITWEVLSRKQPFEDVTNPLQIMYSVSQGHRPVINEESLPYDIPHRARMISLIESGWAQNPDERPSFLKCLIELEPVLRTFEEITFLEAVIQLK
T2 sequence (O43353 1-310 limits assumed): as the sequence (O43353 1-310) above

For `CCS(=O)(=O)Nc1cc(-c2cnc3cc(OC)c(C(=O)N4CCC(O)CC4)cn23)cc(F)c1OC` [Example 192, N-(3-fluoro-5-(6-(4-hydroxypiperidine-1-carbonyl)-7-methoxyimidazo[1,2-a]pyridin-3-yl)-2-methoxyphenyl) ethanesulfonamide], the IC50 in assay [1] is 2.5 to 20 nM; in assay [2], greater than 1000 nM; in assay [3] (setting [5]) it was 2.5 to 20 nM. The Emax in assay [3] (setting [4]) is greater than 80%.
Regarding `CCCS(=O)(=O)Nc1cc(-c2cnc3cc(OC)c(S(=O)(=O)C(C)(C)CO)cn23)cc(F)c1OC` [Example 126, N-(3-fluoro-5-(6-((1-hydroxy-2-methylpropan-2-yl)sulfonyl)-7-methoxyimidazo[1,2-a]pyridin-3-yl)-2-methoxyphenyl)propane-1-sulfonamide], the IC50 in assay [1] was less than 1 nM; in assay [2], less than 50 nM; in assay [3] (setting [5]) it was less than 1 nM. Further, the Emax in assay [3] (setting [4]) is greater than 80%.
`CC(C)(C)S(=O)(=O)c1cn2c(-c3cc(F)c(N)nc3F)cnc2cc1OCC1(CO)COC1` [Example 49, (3-(((3-(6-amino-2,5-difluoropyridin-3-yl)-6-(tert-butylsulfonyl)imidazo[1,2-a]pyridin-7-yl)oxy)methyl)oxetan-3-yl)methanol]: the IC50 in assay [1] lay in the range of 2.5 to 20 nM; in assay [2], 250 to 1000 nM; in assay [3] (setting [5]), 2.5 to 20 nM. The Emax in assay [3] (setting [4]) was greater than 80%.
Regarding `C[C@H](CO)COc1cn2ncc(-c3cc(F)c(N)nc3F)c2cc1S(=O)(=O)C(C)(C)C` [Example 195, (R)-3-((3-(6-amino-2,5-difluoropyridin-3-yl)-5-(tert-butylsulfonyl)pyrazolo [1,5-a]pyridin-6-yl)oxy)-2-methylpropan-1-ol], the 50% inhibitory concentration (IC50) in assay [1] is less than 1 nM; in assay [2] it was less than 50 nM; in assay [3] (setting [5]), less than 1 nM. In addition, in assay [3] (setting [4]), the Emax is greater than 80%.
Regarding `COc1cc2ncc(-c3cc(F)c(OC)c(NS(=O)(=O)c4cnn(C)c4)c3)n2cc1S(=O)(=O)C(C)(C)C` [Example 135, N-(5-(6-(tert-butylsulfonyl)-7-methoxyimidazo[1,2-a]pyridin-3-yl)-3-fluoro-2-methoxyphenyl)-1-methyl-1H-pyrazole-4-sulfonamide], the values for the half-maximal inhibitory concentration (IC50) in assay [1], in assay [2] and in assay [3] (setting [5]) were less than 1 nM, less than 50 nM and less than 1 nM, respectively. Besides, in assay [3] (setting [4]), the Emax is greater than 80%.
Regarding `COc1cc2ncc(-c3cc(F)c4nc(C)cn4c3)n2cc1S(=O)(=O)C(C)(C)C` [Example 109, 6-(tert-butylsulfonyl)-8′-fluoro-7-methoxy-2′-methyl-3,6′-biimidazo[1,2-a]pyridine], the half-maximal inhibitory concentration (IC50) in assay [1] is greater than 20 nM; in assay [2], greater than 1000 nM; in assay [3] (setting [5]) it was greater than 20 nM. Further, the Emax in assay [3] (setting [4]) is less than 30%.
Consider `COc1cc2ncc(-c3cc(F)c(OC)c(NS(=O)(=O)c4cn(C)nc4C)c3)n2cc1S(=O)(=O)C(C)(C)C` [Example 279, N-(5-(6-(tert-butylsulfonyl)-7-methoxyimidazo[1,2-a]pyridin-3-yl)-3-fluoro-2-methoxyphenyl)-1,3-dimethyl-1H-pyrazole-4-sulfonamide], for which the concentration for half-maximal inhibition (IC50) in assay [1] was less than 1 nM; in assay [2] it was less than 50 nM; in assay [3] (setting [5]), less than 1 nM. For the same molecule, in assay [3] (setting [4]), the Emax is greater than 80%.
As to `CCCS(=O)(=O)Nc1cc(-c2cnc3cc(OC)c(S(=O)(=O)C4(C)CC4)cn23)cc(OC)c1OC` [Example 67, N-(2,3-dimethoxy-5-(7-methoxy-6-((1-methylcyclopropyl)sulfonyl)imidazo[1,2-a]pyridin-3-yl)phenyl)propane-1-sulfonamide], the IC50 is less than 1 nM in assay [1], less than 50 nM in assay [2] and less than 1 nM in assay [3] (setting [5]). The Emax in assay [3] (setting [4]) was greater than 80%.
As for `CC(C)(C)S(=O)(=O)c1cn2c(-c3cc(F)c(N)nc3F)cnc2cc1OCCN1CCOCC1` [Example 18, 5-(6-(tert-butylsulfonyl)-7-(2-morpholinoethoxy)imidazo[1,2-a]pyridin-3-yl)-3,6-difluoropyridin-2-amine], the IC50 is 2.5 to 20 nM in assay [1], 250 to 1000 nM in assay [2] and 2.5 to 20 nM in assay [3] (setting [5]). In addition, the Emax in assay [3] (setting [4]) is greater than 80%.
`COc1cc2ncc(-c3cc(NS(=O)(=O)C4(CO)CC4)c(OC)c(OC)c3)n2cc1S(=O)(=O)C(C)(C)C` [Example 178, N-(5-(6-(tert-butylsulfonyl)-7-methoxyimidazo[1,2-a]pyridin-3-yl)-2,3-dimethoxyphenyl)-1-(hydroxymethyl)cyclopropane-1-sulfonamide]: the half-maximal inhibitory concentration (IC50) was less than 1 nM in assay [1], less than 50 nM in assay [2] and less than 1 nM in assay [3] (setting [5]). Further, the Emax in assay [3] (setting [4]) was greater than 80%.
Regarding `COc1cc2ncc(-c3ccc(N)nc3F)n2cc1S(=O)(=O)CCCO` [Example 61, 3-((3-(6-amino-2-fluoropyridin-3-yl)-7-methoxyimidazo[1,2-a]pyridin-6-yl)sulfonyl)propan-1-ol], the figures for the IC50 in assay [1], in assay [2] and in assay [3] (setting [5]) were greater than 20 nM, greater than 1000 nM and greater than 20 nM, respectively. Moreover, the Emax in assay [3] (setting [4]) is greater than 80%.
With `CC1(COc2cc3ncc(-c4cc(F)c(N)nc4F)n3cc2S(=O)(=O)C(C)(C)C)COC1` [Example 26, 5-(6-(tert-butylsulfonyl)-7-((3-methyloxetan-3-yl)methoxy)imidazo[1,2-a]pyridin-3-yl)-3,6-difluoropyridin-2-amine], the half-inhibitory concentration (IC50) in assay [1] fell in the range of 1 to 2.5 nM; in assay [2], 50 to 250 nM; in assay [3] (setting [5]), 2.5 to 20 nM. Moreover, in assay [3] (setting [4]), the Emax was greater than 80%.
Taken in the same sequence, the figures for `COc1cc2ncc(-c3cc(NS(=O)(=O)c4cnn(C)c4)c(OC)c(OC)c3)n2cc1S(=O)(=O)C(C)(C)C` [Example 244, N-(5-(6-(tert-butylsulfonyl)-7-methoxyimidazo[1,2-a]pyridin-3-yl)-2,3-dimethoxyphenyl)-1-methyl-1H-pyrazole-4-sulfonamide] were 1 to 2.5 nM, less than 50 nM, less than 1 nM and greater than 80%.
The like results for `COc1cc2ncc(-c3cc(F)c(OC)c(NC(=O)Cc4ccn(C)n4)c3)n2cc1S(=O)(=O)C(C)(C)C` [Example 298, N-(5-(6-(tert-butylsulfonyl)-7-methoxyimidazo[1,2-a]pyridin-3-yl)-3-fluoro-2-methoxyphenyl)-2-(1-methyl-1H-pyrazol-3-yl)acetamide] were, in that order, 2.5 to 20 nM, 250 to 1000 nM, 2.5 to 20 nM and 55 to 80%.
Taken in the same sequence, the figures for `C[C@H](CO)COc1cn2ncc(-c3cc(Cl)c(N)nc3F)c2cc1S(=O)(=O)C(C)(C)C` [Example 200, (R)-3-((3-(6-amino-5-chloro-2-fluoropyridin-3-yl)-5-(tert-butylsulfonyl)pyrazolo [1,5-a]pyridin-6-yl)oxy)-2-methylpropan-1-ol] were less than 1 nM, less than 50 nM, less than 1 nM and greater than 80%.
As for `COc1cc2ncc(-c3cc4cn[nH]c4cn3)n2cc1S(=O)(=O)C(C)(C)C` [Example 11, 5-(6-(tert-butylsulfonyl)-7-methoxyimidazo[1,2-a]pyridin-3-yl)-1H-pyrazolo[3,4-c]pyridine], the IC50 in assay [1] was 2.5 to 20 nM; in assay [2], less than 50 nM; in assay [3] (setting [5]), greater than 20 nM. Further, in assay [3], the Emax is less than 30%.
